Columns and labels:
[1] = test system: E. coli-sta enterotoxin induced diarrhoea; set-up: species or system NMRI mice; settings: mouse, in vivo
[2] = test system: E. coli-sta enterotoxin induced diarrhoea; set-up: species or system NMRI mice; settings: mouse, in vivo; remark: listed apart in the source
[3] = test system: heartburn in patients suffering from endoscopic negative GORD; settings: in vivo
[4] = test system: intestinal system's proteolytic capacity and disacaridase potential; settings: cited from earlier work

Molecule	mean number of stools passed [1]	net stool weight [1]	frequency of defecation [2]	reduction in stool weight [2]	Reported side-effects: Bloatedness [3]	Reported side-effects: Constipation [3]	Reported side-effects: Nausea [3]	Reported side-effects: No side-effects [3]	Reported side-effects: Sleeplessness [3]	intestinal system's proteolytic capacity and disacaridase potential [4]
CN(C)C(=O)C(CCN1CCC(O)(c2ccc(Cl)cc2)CC1)(c1ccccc1)c1ccccc1 [loperamide]	reduction	reduction	significantly reduced (P<0.05)	significant (P<0.05)	–	–	–	–	–	–
clinoptilolite	–	–	–	–	3/10	2/10	1/10	4/10	1/10	not modified
